Measurements as given in US8188105B2, “Therapeutic agent for inflammatory bowel disease comprising uracil derivative as active ingredient” (Taiho Pharmaceutical Co., Ltd., priority 2007, dated 2012).

Test system: DSS-induced mouse colitis
Test: Effect on improvement of pathological conditions in DSS-induced IBD model
Format: in vivo, mice (C57BL/6N Jcl)
Set-up: DAI Score (MEANS ± SD): scale not given here
Conditions: 2% DSS day 1 to day 7, drug 30 mg/kg/day day 0 to day 7; for Abnormal stool occurrence: mice with abnormal stool (loose stool, diarrhea, blood in stool) counted on day 8, n=6 per group, control 6, non-treatment 0; for DAI Score (MEANS ± SD): DAI scores per Table 1 (body weight loss, stool hardness, fecal occult blood), day 8, control 5.3 ± 2.1
Procedure: This test was performed in accordance with the method described in PEDIATRIC RESEARCH, Vol. 53, No. 1, 143-147, 2003. […] Dextran sulfate sodium (hereinafter abbreviated as “DSS,” product of Wako Pure Chemical Industries, Ltd.) was dissolved in purified water to 2% w/v, and the solution was fed ad libitum to the mice for seven days through a liquid-feed bottle (day 1 to day 7), to thereby establish ulcerative colitis models. The test groups included a drug-non-administration group (control), and a uracil derivative (1)-administration (30 mg/kg/day) group. A non-treatment group was provided through feeding purified water instead of 2% aqueous DSS solution. The drug was administered for eight days from one day before start of feeding 2% aqueous DSS solution (i.e., from day 0 to day 7). The improvement effect was determined on the day following the final drug administration day (on day 8) by counting occurrence of abnormal stools (loose stool, diarrhea, and visual observation of presence of blood in stool).

Compound | Abnormal stool occurrence | DAI Score (MEANS ± SD)
CNCc1[nH]c(=O)[nH]c(=O)c1Cl [Compound 1, 5-chloro-6-(methylaminomethyl)uracil] | 4 | 
O=c1[nH]c(CN2CCCC2)c(Cl)c(=O)[nH]1 [Compound 2, 5-chloro-6-(1-pyrrolidinylmethyl)uracil] | 3 | 
CN(CCO)Cc1[nH]c(=O)[nH]c(=O)c1Cl [Compound 3, 5-chloro-6-((N-(2-hydroxyethyl)-N-methylamino)methyl)uracil] | 3 | 
Cl.O=c1[nH]c(CSc2nnc[nH]2)c(Cl)c(=O)[nH]1 [Compound 4, 5-chloro-6-(1,2,4-triazole-3-thiomethyl)uracil hydrochloride salt] | 0 | 0.22 ± 0.27
N=C1NCCN1Cc1[nH]c(=O)[nH]c(=O)c1Cl [Compound 5, 5-chloro-6-(1-(2-iminoimidazolidinyl)methyl)uracil] | 0 | 0.28 ± 0.25
O=c1[nH]c(CN2CCCC2)c(Br)c(=O)[nH]1 [Compound 6, 5-bromo-6-(1-pyrrolidinylmethyl)uracil] | 2 | 0.22 ± 0.27
